Laboratory results reported in PMC8012336, “An automated and high-throughput-screening compatible pluripotent stem cell-based test platform for developmental and reproductive toxicity assessment of small molecule compounds” (Cell Biology and Toxicology, 2020).

Columns and labels:
[1] = test system: hiPSC line ZIPi013-E; assay: Manual human EST cytotoxicity assay, CellTiter-Glo, 5 d
Method: (§1) The cytotoxicity assessment with a reduced assay time of 5 days combined with either NADH- or ATP-based detection was also carried out with human induced pluripotent stem cells (hiPSCs). […] Furthermore, differences in the cytotoxicity effects between the hiPSCs and HDFfs were more pronounced than in the mouse cells. Similar to the cytotoxicity-based assay the overall variance in the data is reduced when viability data was obtained by an ATP-based read-out.
(§2) 96-well cell culture plates were coated with gelatin (0.1%) before plating mESC-D3. All peripheral wells of the assay plate were filled with 200 μl growth media. In order to assess compound toxicity on mESC-D3 and NIH/3T3 cells, cell suspensions of NIH/3T3, and mESC-D3 were prepared in growth media (1 × 10^4 cells/ml) and were transferred to all remaining wells (50 μl/well). A 7-point dilution series in growth media was prepared for each test compound and was transferred to the assay plate 2 h after cell seeding (150 μl/well). Afterward, the cells were incubated in a humidified atmosphere at 37 °C and 5% CO2. Three and 5 days after seeding the cell supernatant was replaced by freshly prepared compound solution (200 μl/well). Seven days after seeding the assay plate was taken out of the incubator and located at room temperature for 10 min, before cell supernatant was aspirated (80 μl/well) and CellTiter-Glo® reagent was dispensed (50 μl/well). The assay plate was placed on a shaker for 1 min and after another 10 min incubation at room temperature in the dark the luminescence signal was detected on a plate reader.
(§3) Figure S1: Step-wise evolution of the cytotoxicity assay towards the use of human cell lines. Related to Figure 2. Cytotoxicity assays were carried out with two compound sets on hiPSC line ZIPi013-E and HDFf, from which they were derived. […] A) 5 day MTT assay and manual handling. B) As in A), but using CellTiter-Glo® viability assay. All points in the graph represent the mean of 6 individual data points, including the standard error.

[2] = test system: HDFf (human dermal fibroblasts of fetal origin); assay: as above
Method: as §1, §2, §3

[3] = test system: hiPSC line ZIPi013-E; assay: Manual human EST cytotoxicity assay, MTT, 5 d
Method: as §1
(§4) The MTT cell viability assay was performed as described (Seiler and Spielmann [2011]) with modifications. In brief, 96-well cell culture plates were coated with gelatin (0.1%) before plating mESC-D3. All peripheral wells of the assay plate were filled with 200 μl growth media (“blank”). Afterward, NIH/3T3 and mESC-D3 were plated in growth media (1 × 10^4 cells/ml, 50 μl/well). […] Vehicle (PBS) and positive control (5-fluorouracil) wells were also included on all assay plates. Three and 5 days after seeding the cell supernatant was replaced by freshly prepared compound solution (200 μl/well). Seven days after seeding the cell viability was detected. Therefore, the cell supernatant was aspirated from all wells, MTT solution (5 mg/ml) was added (20 μl/well) and the assay plate was incubated for 2 h at 37 °C and 5% CO2 in a humidified atmosphere. Afterward, all liquid was removed from the wells and MTT desorb solution (0.7% SDS in 2-propanol (Carl Roth, Cat. No. 9866.5), pre-warmed to 37 °C) was dispensed (130 μl/well). The assay plate was placed on a shaker for 15 min. Remaining precipitates were suspended by pipetting up and down with a multichannel pipette before measuring the absorption at 570 nm on a microtiter plate reader using 630 nm as a reference wavelength.
as §3

[4] = test system: HDFf (human dermal fibroblasts of fetal origin); assay: Manual human EST cytotoxicity assay, MTT, 5 d
Method: as §1, §4, §3

## NC(=O)NO [Hydroxyurea, hydroxyurea]
[1]
  Cytotoxicity assay CTG, 5 d IC50 ZIPi013-E: 0.8652 µg/mL
[2]
  Cytotoxicity assay CTG, 5 d IC50 HDFf: 30.15 µg/mL
[3]
  Cytotoxicity assay MTT, 5 d IC50 ZIPi013-E: 0.3326 µg/mL
[4]
  Cytotoxicity assay MTT, 5 d IC50 HDFf: 4.005 µg/mL
